# Results reported in patent US7091204B2, “Sulfonamides” (SmithKline Beecham Corporation, priority 2001, dated 2006).
# Target: T1, human and rat GPR-14 (UniProt Q9UKP6)
# T1 sequence (Q9UKP6 1-389): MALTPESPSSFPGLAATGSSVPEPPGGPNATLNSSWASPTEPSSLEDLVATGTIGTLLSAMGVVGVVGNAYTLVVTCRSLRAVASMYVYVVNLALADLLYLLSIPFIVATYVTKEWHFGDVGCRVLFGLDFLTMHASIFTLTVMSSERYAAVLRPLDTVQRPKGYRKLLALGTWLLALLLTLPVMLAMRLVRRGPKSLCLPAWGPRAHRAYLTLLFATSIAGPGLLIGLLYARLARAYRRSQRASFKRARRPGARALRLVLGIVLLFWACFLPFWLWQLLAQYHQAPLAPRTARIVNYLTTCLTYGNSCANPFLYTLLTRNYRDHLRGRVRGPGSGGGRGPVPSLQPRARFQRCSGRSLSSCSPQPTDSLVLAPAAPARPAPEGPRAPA
# Assay: Radioligand binding: [125I] h-U-II binding to HEK-293 cell membranes
# Conditions: HEK-293 cell membranes with stable cloned GPR-14; 200 pM [125I] h-U-II; species for the value not stated
# Description: HEK-293 cell membranes containing stable cloned human and rat GPR-14 (20 ug/assay) were incubated with 200 pM [125I] h-U-II (200 Ci/mmol^−1 in the presence of increasing concentrations of test compounds in DMSO (0.1 nM to 10 uM), in a final incubation volume of 200 ul (20 mM Tris-HCl, 5 mM MgCl2). Incubation was done for 30 minutes at room temperature followed by filtration GF/B filters with Brandel cell harvester. ^125I labeled U-II binding was quantitated by gamma counting. Nonspecific binding was defined by ^125I U-II binding in the presence of 100 nM of unlabeled human U-II. Analysis of the data was performed by nonlinear least square fitting.
smiles,measurement,value
"CN1CC[C@@H](Oc2cc(NS(=O)(=O)c3cnc(Cl)nc3OCC(F)(F)F)ccc2Cl)C1 [Example 14, 2-Chloro-4-(2,2,2-trifluoro-ethoxy)-pyrimidine-5-sulfonic acid [4-chloro-3-((R)-1-methyl-pyrrolidin-3-yloxy)-phenyl]-amide]",Ki,590 nM
